Results from ChEMBL document CHEMBL1201862, “PubChem BioAssay data set” (2004).
Activity calls are given as the source filed them.

How the values were obtained:
[1] = target: Cytochrome P450 2C9 (Homo sapiens, UniProt P11712)
[2] = target: Cytochrome P450 2D6 (Homo sapiens, UniProt P10635);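 further: CYP2D6 member of a cytochrome P450 panel assay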
[3] = target: Cytochrome P450 3A4 (Homo sapiens, UniProt P08684);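 further: CYP3A4 tested as one member of a cytochrome P450 panel screen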
[4] = target: Cytochrome P450 2C19 (Homo sapiens, UniProt P33261); assay: Cytochrome panel assay with activity outcomes. Panel member name: p450-cyp2c19 Compounds with AC50 equal or less than 10 uM are considered active; format: functional; conditions: read-out: AC50
Chain of Cytochrome P450 2C19 (P33261 whole entry): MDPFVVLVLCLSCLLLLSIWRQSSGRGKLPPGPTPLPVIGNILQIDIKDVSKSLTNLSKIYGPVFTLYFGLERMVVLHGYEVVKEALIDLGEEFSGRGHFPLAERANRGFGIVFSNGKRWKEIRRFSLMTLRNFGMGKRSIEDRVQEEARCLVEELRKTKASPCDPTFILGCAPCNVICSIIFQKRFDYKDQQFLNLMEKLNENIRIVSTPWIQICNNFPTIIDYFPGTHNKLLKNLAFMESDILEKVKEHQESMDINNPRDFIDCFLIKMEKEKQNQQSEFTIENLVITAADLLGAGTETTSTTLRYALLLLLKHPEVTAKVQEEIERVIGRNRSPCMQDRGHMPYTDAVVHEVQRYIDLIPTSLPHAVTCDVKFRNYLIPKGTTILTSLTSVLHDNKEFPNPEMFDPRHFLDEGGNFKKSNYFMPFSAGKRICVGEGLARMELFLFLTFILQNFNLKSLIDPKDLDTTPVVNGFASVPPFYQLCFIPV

[5] = test system: Streptococcus sp. 'group A'; assay: Streptococcus pyogenes SK(-)GAS viability under kanamycin – luminescence, BacTiterGlo, confirmation, counter-screen for streptokinase expression inhibitor project, dose response (AID 1900); format: functional, organism-based
[6] = Trypanosoma cruzi growth suppression in host cells – NIH3T3 host cells, beta-gal luminescence, confirmation (AID 2044); format: functional, cell-based;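 further: intracellular parasites grown in NIH/3T3 mouse fibroblasts as host cells; luminescent beta-galactosidase reporter signal from transgenic T. cruzi replicating inside host cells; inhibitors lower the luminescence signal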
[7] = target: T1, Streptokinase A (Streptococcus pyogenes serotype M1, UniProt P10520); assay: viability-normalized secreted streptokinase activity reduction – plasminogen activation absorbance, OD405, dose response (AID 1914); format: functional, Streptococcus pyogenes M1 GAS;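 further: secreted streptokinase activity via plasminogen activation per viability signal from cell pellet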
T1 sequence (P10520 whole entry): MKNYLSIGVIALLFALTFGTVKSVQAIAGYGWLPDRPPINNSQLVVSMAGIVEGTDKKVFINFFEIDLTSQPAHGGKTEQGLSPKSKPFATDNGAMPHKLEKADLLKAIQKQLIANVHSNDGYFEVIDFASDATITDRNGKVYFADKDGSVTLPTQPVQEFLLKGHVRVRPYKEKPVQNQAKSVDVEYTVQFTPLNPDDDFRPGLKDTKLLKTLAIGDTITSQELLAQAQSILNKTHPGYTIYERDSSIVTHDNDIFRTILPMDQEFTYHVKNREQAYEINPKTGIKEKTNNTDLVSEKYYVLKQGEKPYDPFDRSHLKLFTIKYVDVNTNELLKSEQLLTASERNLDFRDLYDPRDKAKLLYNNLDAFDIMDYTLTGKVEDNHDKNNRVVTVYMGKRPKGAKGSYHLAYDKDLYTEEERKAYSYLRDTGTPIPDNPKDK

[8] = NIH3T3 cell viability loss – ATP luminescence, mouse fibroblasts, counter-screen, dose response (AID 2010); format: functional, cell-based;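 further: cells exposed to compound for about 90 hours before reading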
[9] = test system: Streptococcus; assay: GAS UMAA2166 growth inhibition – luminescence, BacTiterGlo, counter-screen for streptokinase expression inhibitor project, dose response (AID 1915); format: functional, organism-based;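 further: potency for reduction of bacterial viability or growth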
[10] = target: T2, Cytochrome P450 1A2 (Homo sapiens, UniProt P05177);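 further: PubChem cytochrome P450 panel assay, CYP1A2 panel member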
T2 sequence (P05177 whole entry): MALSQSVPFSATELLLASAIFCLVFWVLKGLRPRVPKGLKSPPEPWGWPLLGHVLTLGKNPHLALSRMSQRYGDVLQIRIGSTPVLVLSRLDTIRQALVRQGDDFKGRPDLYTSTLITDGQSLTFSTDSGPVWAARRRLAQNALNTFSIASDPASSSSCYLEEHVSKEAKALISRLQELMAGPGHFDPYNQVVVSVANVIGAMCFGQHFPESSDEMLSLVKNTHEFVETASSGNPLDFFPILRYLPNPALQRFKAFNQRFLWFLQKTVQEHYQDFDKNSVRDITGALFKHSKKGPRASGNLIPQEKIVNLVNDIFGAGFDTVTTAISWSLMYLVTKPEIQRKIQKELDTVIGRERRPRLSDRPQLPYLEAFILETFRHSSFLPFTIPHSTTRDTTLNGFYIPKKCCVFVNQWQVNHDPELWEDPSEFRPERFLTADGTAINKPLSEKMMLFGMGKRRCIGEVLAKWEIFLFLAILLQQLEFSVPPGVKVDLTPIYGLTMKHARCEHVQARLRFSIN

[11] = test system: SN12K1; assay: cells; format: functional; conditions: Homo sapiens
[12] = test system: P388; assay: cells; format: functional; conditions: Mus musculus
[13] = test system: P388/ADR; assay: cells; format: functional; conditions: Mus musculus
[14] = target: Paired box protein Pax-8 (Homo sapiens, UniProt Q06710); assay: PAX8 transcriptional activity inhibition in RMG-I – RMG-I cells, luciferase, cherry-pick, dose response (AID 687027); format: functional, cell-based;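 further: luciferase reporter driven by Pax8 target thyroperoxidase promoter measured by SteadyGlo luminescence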
Chain of Paired box protein Pax-8 (Q06710 whole entry): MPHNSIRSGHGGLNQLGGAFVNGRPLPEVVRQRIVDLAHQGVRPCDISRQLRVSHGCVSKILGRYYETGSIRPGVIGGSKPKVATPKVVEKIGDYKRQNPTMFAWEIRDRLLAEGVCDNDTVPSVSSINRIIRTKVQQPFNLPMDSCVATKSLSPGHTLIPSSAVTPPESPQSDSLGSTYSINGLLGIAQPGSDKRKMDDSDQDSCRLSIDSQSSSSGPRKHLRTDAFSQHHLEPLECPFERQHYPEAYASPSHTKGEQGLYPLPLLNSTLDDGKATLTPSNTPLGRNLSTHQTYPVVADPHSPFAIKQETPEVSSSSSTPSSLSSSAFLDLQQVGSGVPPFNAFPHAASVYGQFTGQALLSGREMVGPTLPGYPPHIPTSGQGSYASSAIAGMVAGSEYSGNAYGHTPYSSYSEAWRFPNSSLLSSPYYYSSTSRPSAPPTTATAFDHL

Chain of Cytochrome P450 3A4 (P08684 whole entry): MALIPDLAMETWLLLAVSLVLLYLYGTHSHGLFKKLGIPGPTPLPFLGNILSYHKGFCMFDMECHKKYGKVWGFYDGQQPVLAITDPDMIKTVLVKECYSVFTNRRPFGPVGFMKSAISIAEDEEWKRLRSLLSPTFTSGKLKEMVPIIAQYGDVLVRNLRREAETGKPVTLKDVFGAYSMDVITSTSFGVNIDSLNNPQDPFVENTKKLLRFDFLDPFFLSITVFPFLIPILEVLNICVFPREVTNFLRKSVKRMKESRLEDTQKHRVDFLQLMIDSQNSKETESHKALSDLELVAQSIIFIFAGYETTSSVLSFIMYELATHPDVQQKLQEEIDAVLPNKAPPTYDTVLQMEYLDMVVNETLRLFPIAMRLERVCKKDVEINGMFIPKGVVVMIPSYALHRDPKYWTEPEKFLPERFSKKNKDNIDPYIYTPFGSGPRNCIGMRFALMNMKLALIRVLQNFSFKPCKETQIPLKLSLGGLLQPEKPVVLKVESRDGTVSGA
Chain of Cytochrome P450 2C9 (P11712 whole entry): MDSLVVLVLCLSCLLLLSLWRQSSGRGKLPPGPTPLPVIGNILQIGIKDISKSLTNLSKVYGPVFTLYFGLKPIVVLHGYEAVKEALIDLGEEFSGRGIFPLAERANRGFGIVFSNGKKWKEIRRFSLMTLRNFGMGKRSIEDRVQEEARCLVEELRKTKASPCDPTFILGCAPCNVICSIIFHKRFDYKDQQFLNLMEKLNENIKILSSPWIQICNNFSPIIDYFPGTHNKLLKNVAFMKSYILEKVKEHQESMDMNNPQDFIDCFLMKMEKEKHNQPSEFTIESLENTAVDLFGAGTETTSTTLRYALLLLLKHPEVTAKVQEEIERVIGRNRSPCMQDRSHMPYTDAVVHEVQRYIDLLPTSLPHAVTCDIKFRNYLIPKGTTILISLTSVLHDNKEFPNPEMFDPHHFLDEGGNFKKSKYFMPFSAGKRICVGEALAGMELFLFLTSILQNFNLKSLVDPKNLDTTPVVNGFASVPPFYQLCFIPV
Chain of Cytochrome P450 2D6 (P10635 whole entry): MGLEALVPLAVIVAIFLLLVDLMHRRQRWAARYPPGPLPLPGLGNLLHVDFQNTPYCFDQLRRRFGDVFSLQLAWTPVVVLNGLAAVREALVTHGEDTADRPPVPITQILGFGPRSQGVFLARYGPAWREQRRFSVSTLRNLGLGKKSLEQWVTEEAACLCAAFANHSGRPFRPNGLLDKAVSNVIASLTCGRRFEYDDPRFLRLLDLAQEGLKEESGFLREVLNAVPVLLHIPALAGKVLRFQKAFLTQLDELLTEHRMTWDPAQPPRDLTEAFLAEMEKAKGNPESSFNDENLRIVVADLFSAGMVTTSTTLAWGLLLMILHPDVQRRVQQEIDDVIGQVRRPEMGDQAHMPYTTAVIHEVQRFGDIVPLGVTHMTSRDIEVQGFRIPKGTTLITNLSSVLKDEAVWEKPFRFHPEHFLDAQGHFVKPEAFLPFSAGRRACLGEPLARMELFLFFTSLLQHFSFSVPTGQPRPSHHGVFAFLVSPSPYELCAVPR

SMILES: COc1cccc(C2NC(c3cccc(OC)c3O)C(C)C(=O)C2C)c1O (centres undefined)
- AC50 [1]: 10 µM (inconclusive)
- AC50 [2]: 7.94 µM (inconclusive)

SMILES: C[C@H]1CC(C)(C)C[C@@](OCCN2CCCCC2)(c2ccccc2)C1
- AC50 [3]: 3.16 µM (inconclusive)

SMILES: CCOC(=O)CN(c1ccccn1)S(=O)(=O)c1ccccc1
- AC50 [1]: 3.55 µM (inconclusive)
- AC50 [4]: 31.6 µM (inconclusive)

SMILES: O=C(/C=C/c1ccco1)Nc1nc(-c2ccccn2)cs1
- EC50 [5]: 18 µM (active)
- EC50 [6]: 4.02 µM (active)
- EC50 [7]: > 150 µM (not active)
- EC50 [8]: 11.6 µM (active)
- EC50 [9]: > 150 µM (not active)

SMILES: CCN1CCc2nc(NC(=O)c3ccc4c(c3)OCCO4)sc2C1
- AC50 [1]: 12.6 µM (inconclusive)
- AC50 [10]: 3.16 µM (inconclusive)

SMILES: C=C1C(=O)O[C@H]2[C@H]1[C@@H](OC(=O)C=C(C)C)CC1=C[C@@H](C[C@@]3(C)O[C@@H]23)OC1=O
- GI50 [11]: 6.46 µM (inactive)
- GI50 [12]: 0.139 µM (active)

SMILES: CC(=O)OC1CC2(O)C(CCC3(C)C(c4ccc(=O)oc4)CCC32O)C2(C)C1=CC(O)C1OC12 (centres undefined)
- GI50 [11]: 0.0424 µM (active)
- GI50 [12]: 46.1 µM (inactive)
- GI50 [13]: 79.1 µM (inactive)

SMILES: CNc1cnn(-c2ccccc2)c(=O)c1Cl
- AC50 [1]: 1 µM (inconclusive)
- AC50 [10]: 28.2 µM (inconclusive)

SMILES: CC1=C(C(=O)Nc2ccccc2)C(c2ccco2)NC(S)=N1 (centres undefined)
- AC50 [1]: 12.6 µM (inconclusive)

SMILES: COC(=O)N1CCC2(CCCN(Cc3ccccc3OC)C2)CC1
- AC50 [3]: 6.31 µM (inconclusive)

SMILES: O=c1c(-c2ccccc2)nc2cnc(Nc3ccccc3)nc2n1C[C@H]1CCCO1
- AC50 [3]: 12.6 µM (inconclusive)

SMILES: Cc1noc(C)c1-c1ccc2ncnc(NCc3ccccc3)c2c1
- AC50 [2]: 39.8 µM (inconclusive)

SMILES: CCOC(=O)CC1NC(=O)c2ccccc21 (centres undefined)
- AC50 [10]: 28.2 µM (inconclusive)

SMILES: CC(=O)c1c(O)c(C)c(O)c(Cc2c(O)c3c(c(C(=O)/C=C\c4ccccc4)c2O)OC(C)(C)C=C3)c1O
- AC50 [10]: 31.6 µM (inconclusive)

SMILES: O=C(c1cc(-c2ccc(Cl)cc2Cl)on1)N1CCN(C(=O)c2ccco2)CC1
- AC50 [2]: 20 µM (inconclusive)

SMILES: Cc1ccc(C(c2ccc(C)o2)c2cccc([N+](=O)[O-])c2O)o1
- AC50 [2]: 14.1 µM (inconclusive)
- AC50 [3]: 28.2 µM (inconclusive)

SMILES: Cc1ccc2cc3cccc(C(=O)NCCN(C)C)c3nc2c1
- GI50 [11]: 0.426 µM (active)
- GI50 [12]: 0.257 µM (active)
- GI50 [13]: 0.252 µM (active)

SMILES: COc1cc(CCCOC2OC(COC3OCC(O)C(O)C3O)C(O)C(O)C2O)cc2cc(-c3ccc4c(c3)OCO4)oc12 (centres undefined)
- GI50 [11]: > 175 µM (inactive)
- GI50 [12]: > 175 µM (inactive)
- GI50 [13]: > 175 µM (inactive)

SMILES: COc1ccc(/N=C2/S/C(=C\c3ccc(C)s3)C(=O)N2CC(C)C)cc1
- AC50 [3]: 5.01 µM (inconclusive)

SMILES: COC1=C(C)C(=O)C2=C(C1=O)C(CO)N1C(C#N)C3CC4C(C1C2N1CCOC41)N3C (centres undefined)
- GI50 [11]: 0.294 µM (active)
- AC50 [14]: < 0.26 µM (active)
- GI50 [12]: < 0.01 µM (active)
- GI50 [13]: 0.01 µM (active)

SMILES: CN(Cc1ccco1)c1cc(-c2cccc(NS(C)(=O)=O)c2)ncn1
- AC50 [4]: 31.6 µM (inconclusive)
- AC50 [2]: 25.1 µM (inconclusive)

SMILES: CNC(=O)OCc1nc(SC2CCCCO2)n(C)c1COC(=O)NC (centres undefined)
- GI50 [11]: > 100 µM (inactive)
- GI50 [12]: > 100 µM (inactive)
- GI50 [13]: > 100 µM (inactive)

SMILES: CCC(C)(C)n1nnnc1C(C(C)C)N(CCCO)Cc1cc2cc(C)ccc2nc1O (centres undefined)
- AC50 [4]: 25.1 µM (inconclusive)
- AC50 [10]: 15.8 µM (inconclusive)

SMILES: C=CCc1cccc(/C=N\N/C(N)=N/O)c1O
- GI50 [11]: 2.01 µM (inactive)
- GI50 [12]: 1.19 µM (inactive)
- GI50 [13]: 0.78 µM (active)

SMILES: C=CCC(O[Si](C)(C)C(C)(C)C)c1cc(O[Si](C)(C)C(C)(C)C)ccc1OC (centres undefined)
- GI50 [11]: > 100 µM (inactive)
- GI50 [12]: 22.2 µM (inactive)
- GI50 [13]: > 100 µM (inactive)

SMILES: CCOC(=O)CSC1=C(C#N)C(C)C2=C(O)CCCC2=N1 (centres undefined)
- AC50 [1]: 22.4 µM (inconclusive)

SMILES: N#Cc1cc(-c2ccc(Cl)cc2)cnc1Sc1ccc(F)cc1
- AC50 [1]: 7.94 µM (inconclusive)
- AC50 [4]: 1 µM (inconclusive)
- AC50 [3]: 14.1 µM (inconclusive)

SMILES: COc1ncc2nc(CCc3ccccc3)c(=O)n(CCC#N)c2n1
- AC50 [2]: 25.1 µM (inconclusive)

SMILES: COc1cccc(OCc2nnc(SCC(=O)NCc3ccco3)n2C)c1
- AC50 [1]: 15.8 µM (inconclusive)
- AC50 [4]: 25.1 µM (inconclusive)

SMILES: CN(C)CCNC(=O)c1cc(Cl)cc2ccc(-c3ccccc3)nc12
- GI50 [11]: 1.77 µM (inactive)
- GI50 [12]: 0.476 µM (active)
- GI50 [13]: 1.47 µM (inactive)

SMILES: Oc1c(CNCCCN2CCCC2)cc(Cl)c2cccnc12
- GI50 [11]: 0.942 µM (active)
- GI50 [12]: 1.69 µM (inactive)
- GI50 [13]: 1.1 µM (active)

SMILES: COCC(=O)N1CCC[C@@]2(CCN(C(c3ccccc3)c3ccccc3)C2)C1
- AC50 [10]: 12.6 µM (inconclusive)
- AC50 [3]: 10 µM (inconclusive)

SMILES: OC(COc1ccc(OCC(O)CN2CCCCCC2)cc1)CN1CCCCCC1 (centres undefined)
- AC50 [4]: 1.78 µM (inconclusive)
- AC50 [2]: 15.8 µM (inconclusive)

SMILES: COc1ccc(N[C@@H]2c3cc4c(cc3C(c3cc(OC)c(O)c(OC)c3)[C@H]3C(=O)OCC32)OCO4)cc1OC (some centres undefined)
- GI50 [12]: < 0.01 µM (active)
- GI50 [13]: 0.269 µM (active)

SMILES: O=P1(c2ccccc2)Nc2ccccc2SSc2ccccc2N1
- GI50 [11]: 15.3 µM (inactive)
- GI50 [12]: 0.839 µM (active)
- GI50 [13]: 7.45 µM (inactive)

SMILES: O=C(O)[C@@H]1[C@@H](C(=O)NCc2ccncc2)[C@@H]2C=C[C@@H]1O2
- AC50 [3]: 3.98 µM (inconclusive)

SMILES: COc1ccc(C(=O)N2CC3(CC(c4ccc(Cl)cc4)=NO3)C[C@H]2C(=O)NCC(N)=O)cc1 (some centres undefined)
- AC50 [3]: 31.6 µM (inconclusive)

SMILES: COc1cc(NC(=O)COC(=O)c2nc3nc(C)cc(C)n3n2)cc(OC)c1
- AC50 [1]: 28.2 µM (inconclusive)
- AC50 [2]: 15.8 µM (inconclusive)

SMILES: N#Cc1ccccc1-c1cncnc1NCc1cccnc1
- AC50 [3]: 0.2 µM (inconclusive)

SMILES: O=S(=O)(c1ccccc1)N1CCC2(CCN(Cc3nccs3)CC2)CC1
- AC50 [2]: 25.1 µM (inconclusive)

SMILES: Cc1ccc(-c2nnc(-c3ccc(NC(=O)c4cccs4)cc3)o2)cc1
- AC50 [3]: 20 µM (inconclusive)

SMILES: COc1cccc2c1C(=O)c1c(O)c3c(c(O)c1C2=O)C[C@@](O)(C(=O)CO)C[C@@H]3OC1CC(N2CCOCC2)C(O)C(C)O1 (some centres undefined)
- GI50 [11]: 0.00366 µM (active)
- GI50 [12]: 0.0025 µM (active)
- GI50 [13]: 0.00136 µM (active)

SMILES: N#Cc1ccccc1-c1ccc2ncnc(NC3CC3)c2c1
- AC50 [4]: 7.94 µM (inconclusive)
- AC50 [2]: 39.8 µM (inconclusive)

SMILES: Nc1nc(SCCc2ccccc2)c2nc[nH]c2n1
- AC50 [1]: 3.98 µM (inconclusive)
- AC50 [2]: 3.98 µM (inconclusive)

SMILES: c1ccc(-c2cccc(N3CC4(CCNCC4)C3)c2)cc1
- AC50 [10]: 12.6 µM (inconclusive)

SMILES: CCOC(=O)CC(Nc1nc(N2CCOCC2)nc(N2CCOCC2)n1)c1ccccc1Cl (centres undefined)
- AC50 [10]: 10 µM (inconclusive)
- AC50 [3]: 25.1 µM (inconclusive)

SMILES: O=NN(CCCl)C(=O)NC1CCCCC1 [LOMUSTINE]
- GI50 [11]: 32.6 µM (inactive)
- GI50 [12]: 4.23 µM (inactive)
- GI50 [13]: 4.56 µM (inactive)

SMILES: O=C(O)Cc1ccc2c(c1)N(S(=O)(=O)c1cccc(C(F)(F)F)c1)CC(C(=O)O)O2 (centres undefined)
- AC50 [1]: 15.8 µM (inconclusive)
- AC50 [4]: 25.1 µM (inconclusive)

SMILES: C[C@@H]1[C@@H]2[C@@H](C=C3C4CCC5Cc6nc7c(nc6C[C@@]5(C)C4C[C@H](O)[C@]32CO)CC2CCC3C4=C[C@H]5O[C@@]6(OC(C)(CO)C[C@@H]6O)[C@H](C)[C@@]5(O)[C@]4(C)[C@@H](O)CC3[C@]2(C)C7)O[C@]12CCC(C)(C)O2 (some centres undefined)
- GI50 [11]: 0.000365 µM (active)
- GI50 [12]: 0.000365 µM (active)
- GI50 [13]: 0.0918 µM (active)
